Counter-ions that a name gives are not always drawn. Like-named read-outs stand apart in the source and are kept apart here. Square brackets hold non-standard residues; d marks the D form. Peptide text beside a SMILES is read from it. * marks the point of attachment. dPiz(1,6-dehydro) = O=C(O)[C@H]1CCC=NN1; d1Nal = N[C@H](Cc1cccc2ccccc12)C(=O)O; d2Nal = N[C@H](Cc1ccc2ccccc2c1)C(=O)O; dNMeY = CN[C@H](Cc1ccc(O)cc1)C(=O)O; dNMeF = CN[C@H](Cc1ccccc1)C(=O)O; hPhe = N[C@@H](CCc1ccccc1)C(=O)O; Pip = O=C(O)[C@@H]1CCCCN1; dPip = O=C(O)[C@H]1CCCCN1; Boc = CC(C)(C)OC(=O)*; Bn = c1ccc(C*)cc1; tBu = CC(C)(C)*
What was measured:
uterine OT receptors = target: T1, uterine OT receptors (Rattus norvegicus, UniProt P70536); test: [^3 H]OT binding to uterine OT receptors, crude membrane preparation of uteri from DES-treated rats; conditions: for IC50: rat uterus membranes, 1 nM [^3 H]OT, read-out: Receptor Binding Results IC50 (nM) [^3 H]OT; for inhibition at 0.1 µM / inhibition at 1 µM: 1 h, read-out: [^3 H]OT: percent inhibition of radioligand at the given concentration; for inhibition at 0.1 µM: @ 100 (nM); for inhibition at 1 µM: @ 1,000 (nM)
T1 construct: from tissue; host or cells: uterus of DES-treated rats, crude membranes
T1 sequence (P70536 1-388): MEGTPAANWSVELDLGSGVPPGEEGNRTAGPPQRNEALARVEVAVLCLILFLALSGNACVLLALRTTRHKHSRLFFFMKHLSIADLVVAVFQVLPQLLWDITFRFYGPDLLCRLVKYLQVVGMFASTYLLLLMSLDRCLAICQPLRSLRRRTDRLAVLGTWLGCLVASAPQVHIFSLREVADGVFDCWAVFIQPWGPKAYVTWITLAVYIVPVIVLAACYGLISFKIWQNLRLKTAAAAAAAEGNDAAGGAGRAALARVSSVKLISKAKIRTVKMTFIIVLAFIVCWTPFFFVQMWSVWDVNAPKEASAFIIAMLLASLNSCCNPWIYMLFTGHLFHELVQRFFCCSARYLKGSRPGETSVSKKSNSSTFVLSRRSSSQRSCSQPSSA
Procedure: Competition studies were conducted at equilibrium (60 minutes; 22° C.) using 1 nM [^3 H]OT in the following assay buffer: 50 mM Tris-HCl, 5 mM MgCl2, and 0.1% BSA, pH 7.4.

AVP-V2 sites = target: T2, AVP-V2 sites (Rattus norvegicus, UniProt Q00788); test: [^3 H]AVP binding to crude membrane preparation of male rat kidney medulla (AVP-V2 sites); conditions: for IC50: read-out: Receptor Binding Results IC50 (nM) [^3 H]-AVP-V2; for inhibition at 1 µM: 0.5 h, read-out: [^3 H]-AVP-V2: percent inhibition of radioligand at the given concentration
T2 construct: male rat liver (AVP-V1 sites) or kidney medulla (AVP-V2 sites); from tissue; host or cells: male rat kidney medulla, crude membranes
T2 sequence (Q00788 whole entry): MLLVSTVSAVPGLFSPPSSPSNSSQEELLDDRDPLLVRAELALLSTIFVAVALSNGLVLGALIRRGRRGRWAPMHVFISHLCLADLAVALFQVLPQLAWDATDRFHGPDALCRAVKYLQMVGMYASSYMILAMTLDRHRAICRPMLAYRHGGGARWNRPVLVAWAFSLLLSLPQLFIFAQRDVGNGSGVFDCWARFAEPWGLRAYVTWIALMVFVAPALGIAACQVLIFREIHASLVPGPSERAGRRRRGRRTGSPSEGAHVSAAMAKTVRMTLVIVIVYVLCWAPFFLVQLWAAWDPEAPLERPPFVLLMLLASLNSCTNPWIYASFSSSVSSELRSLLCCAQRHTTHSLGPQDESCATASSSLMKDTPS
Procedure: (§1) Nonspecific binding (5-10% of the total binding) was determined using 10 μM unlabeled AVP, and the binding reaction was terminated by filtration as described above for the [^3 H]OT binding assay.

AVP-V1 sites = target: T3, AVP-V1 sites (Rattus norvegicus, UniProt P30560); test: [^3 H]AVP binding to crude membrane preparation of male rat liver (AVP-V1 sites)
T3 construct: crude membrane preparation of male rat liver (AVP-V1 sites); from tissue; host or cells: male rat liver, crude membranes
T3 sequence (P30560 whole entry): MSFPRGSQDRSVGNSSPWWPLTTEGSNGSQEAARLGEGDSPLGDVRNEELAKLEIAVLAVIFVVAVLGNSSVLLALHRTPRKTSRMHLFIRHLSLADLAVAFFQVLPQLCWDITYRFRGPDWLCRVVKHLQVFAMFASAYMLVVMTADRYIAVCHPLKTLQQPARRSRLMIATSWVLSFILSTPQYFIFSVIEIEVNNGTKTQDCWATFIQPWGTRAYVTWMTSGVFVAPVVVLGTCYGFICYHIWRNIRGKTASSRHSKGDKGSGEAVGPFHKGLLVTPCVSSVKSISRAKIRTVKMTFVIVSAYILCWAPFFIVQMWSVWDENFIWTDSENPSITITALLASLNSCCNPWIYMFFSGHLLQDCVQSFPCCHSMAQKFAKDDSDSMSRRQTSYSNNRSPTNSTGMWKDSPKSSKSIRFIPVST
Procedure: as §1

[1] = read-out: Receptor Binding Results IC50 (nM) [^3 H]-AVP-V1
[2] = rat kidney medulla membranes, 2 nM [^3 H]AVP
[3] = Receptor Binding Results IC50 (nM) [^3 H]-AVP-V1

Compound	IC50 (uterine OT receptors) [nM]	IC50 (AVP-V2 sites) [nM]	IC50 (AVP-V2 sites; [2]) [nM]	IC50 (AVP-V1 sites; [3]) [nM]	other results
CC[C@H](C)[C@@H]1NC(=O)[C@@H](Cc2ccccc2)NC(=O)[C@@H]2CCCN2C(=O)[C@@H](Cc2ccccc2)N(C)C(=O)[C@H](CCCNC(=N)N)NC(=O)[C@H]2CCC=NN2C1=O [Example 131, c-[D-phenylalanyl-L-isoleucyl-D-Δ-piperazyl-L-arginyl-D-(Nα-methyl)-phenylalanyl-L-prolyl]trifluoroacetate salt] (cyclo(I[dPiz(1,6-dehydro)]R[dNMeF]P[dF]))	7.2	500	–	–	IC50 (AVP-V1 sites; [1]): 400 nM
CC[C@H](C)[C@@H]1NC(=O)[C@@H](Cc2c[nH]c3ccccc23)NC(=O)[C@@H]2CCCN2C(=O)[C@@H](Cc2ccccc2)N(C)C(=O)[C@H](CCCCN)NC(=O)[C@H]2CCCCN2C1=O [Example 132, c-[D-Tryptophanyl-L-isoleucyl-D-pipecolyl-L-lysyl-D-(N-methyl)phenylalanyl-L-prolyl]] (cyclo(I[dPip]K[dNMeF]P[dW]))	65	–	10000	> 10000	–
CN1C(=O)[C@@H]2CCCCN2C(=O)[C@H]2CCCCN2C(=O)[C@H](CCc2ccccc2)NC(=O)[C@@H](Cc2c[nH]c3ccccc23)NC(=O)[C@@H]2CCCN2C(=O)[C@H]1Cc1ccccc1 [Example 133, c-[D-Tryptophanyl-L-homophenylalanyl-D-pipecolyl-L-pipecolyl-D-(N-methyl)phenylalanyl-prolyl]] (cyclo(P[dW][hPhe][dPip][Pip][dNMeF]))	3600	–	10000	10000	–
CN1C(=O)[C@@H]2CCCCN2C(=O)[C@H]2CCCCN2C(=O)[C@H](CCc2ccccc2)NC(=O)[C@@H](Cc2ccccc2)NC(=O)[C@@H]2CCCN2C(=O)[C@H]1Cc1ccccc1 [Example 135, c-[D-Phenylalanyl-L-homophenylalanyl-D-pipecolyl-L-pipecolyl-D-(N-methyl)phenylalanyl-L-prolyl]] (cyclo(P[dF][hPhe][dPip][Pip][dNMeF]))	3400	5000	–	–	IC50 (AVP-V1 sites; [1]): 8800 nM
CN1C(=O)[C@@H]2CCCCN2C(=O)[C@H]2CCCCN2C(=O)[C@H](Cc2ccccc2)NC(=O)[C@@H](Cc2ccccc2)NC(=O)[C@@H]2CCCN2C(=O)[C@H]1Cc1ccccc1 [Example 136, c-[D-Phenylalanyl-L-phenylalanyl-D-pipecolyl-L-pipecolyl-D-(N-methyl)phenylalanyl-L-prolyl]] (cyclo(F[dPip][Pip][dNMeF]P[dF]))	410	8000	–	> 10000	–
CC[C@H](C)[C@@H]1NC(=O)[C@@H](Cc2c[nH]c3ccccc23)NC(=O)[C@@H]2CCCN2C(=O)[C@@H](Cc2ccc(O)cc2)N(C)C(=O)[C@@H]2CCCCN2C(=O)[C@H]2CCCCN2C1=O [Example 137, c-[D-Tryptophanyl-L-isoleucyl-D-pipecolyl-L-pipecolyl-D-(N-methyl)tyrosyl-L-prolyl]] (cyclo(I[dPip][Pip][dNMeY]P[dW]))	7.9	245	–	–	IC50 (AVP-V1 sites; [1]): 9300 nM
CC[C@H](C)[C@@H]1NC(=O)[C@@H](Cc2ccc3ccccc3c2)NC(=O)[C@@H]2CCCN2C(=O)[C@@H](Cc2ccccc2)N(C)C(=O)[C@H](CCCCNC(=O)OC(C)(C)C)NC(=O)[C@H]2CCCCN2C1=O [Example 138, c-[D-2-Naphthylalanyl-L-isoleucyl-D-pipecolyl-L-(N-t-butyloxycarbonyl)lysyl-D-(N-methyl)phenylalanyl-L-prolyl]] (cyclo(I[dPip]K(Boc)[dNMeF]P[d2Nal]))	–	–	–	10000	inhibition at 0.1 µM (uterine OT receptors): 50%; inhibition at 1 µM (AVP-V2 sites; @ 1,000 (nM)): 42%
CC[C@H](C)[C@@H]1NC(=O)[C@@H](Cc2cccc3ccccc23)NC(=O)[C@@H]2CCCN2C(=O)[C@@H](Cc2ccccc2)N(C)C(=O)[C@H](CCCCNC(=O)OC(C)(C)C)NC(=O)[C@H]2CCCCN2C1=O [Example 139, C-[D-1-Napthylalanyl-L-isoleucyl-D-pipecolyl-L-(N-t-butyloxycarbonyl)lysyl-D-(N-methyl)phenylalanyl-L-prolyl]] (cyclo(I[dPip]K(Boc)[dNMeF]P[d1Nal]))	–	8000	–	–	inhibition at 0.1 µM (uterine OT receptors): 24%; IC50 (AVP-V1 sites; [1]): 8000 nM
CC[C@H](C)[C@@H]1NC(=O)[C@@H](Cc2ccc3ccccc3c2)NC(=O)[C@@H]2CCCN2C(=O)[C@@H](Cc2ccccc2)N(C)C(=O)[C@H](CCCCN)NC(=O)[C@H]2CCCCN2C1=O [Example 141, C-[D-2-Napthylalanyl-L-isoleucyl-D-pipecolyl-L-lysyl-D-(N-methyl)phenylalanyl-L-prolyl]] (cyclo([d2Nal]I[dPip]K[dNMeF]P))	45	–	–	–	[^3 H]-AVP-V2: percent inhibition of radioligand at the given concentration (AVP-V2 sites; @ 1,000 (nM)): 78%; [^3 H]-AVP-V1: percent inhibition of radioligand at the given concentration (AVP-V1 sites): 48%
CC[C@H](C)[C@@H]1NC(=O)[C@@H](Cc2ccc(OCc3ccccc3)cc2)NC(=O)[C@@H]2CCCN2C(=O)[C@@H](Cc2ccccc2)N(C)C(=O)[C@H](CCCCNC(=O)OC(C)(C)C)NC(=O)[C@H]2CCCCN2C1=O [Example 142, C-[D-(O-Benzyl)-tyrosinyl-L-isoleucyl-D-pipecolyl-L-(N-t-butyloxycarbonyl)lysyl-D-(N-methyl)phenylalanyl-L-prolyl]] (cyclo(I[dPip]K(Boc)[dNMeF]P[dY](Bn)))	–	–	> 10000	> 10000	inhibition at 1 µM (uterine OT receptors): 12%
CC[C@H](C)[C@@H]1NC(=O)[C@@H](Cc2ccc(OC(C)(C)C)cc2)NC(=O)[C@@H]2CCCN2C(=O)[C@@H](Cc2ccccc2)N(C)C(=O)[C@H](CCCCNC(=O)OC(C)(C)C)NC(=O)[C@H]2CCCCN2C1=O [Example 144, C-[D-(O-t-Butyl)Tyrosiniyl-L-isoleucyl-D-pipecolyl-L(N-t-butyloxycarbonyl)lysyl-D-(N-methyl)phenylalanyl-L-prolyl]] (cyclo(I[dPip]K(Boc)[dNMeF]P[dY](tBu)))	–	–	10000	> 10000	inhibition at 1 µM (uterine OT receptors): 67%
CC[C@H](C)[C@@H]1NC(=O)[C@@H](Cc2ccc(OCc3ccccc3)cc2)NC(=O)[C@@H]2CCCN2C(=O)[C@@H](Cc2ccccc2)N(C)C(=O)[C@H](CCCCN)NC(=O)[C@H]2CCCCN2C1=O [Example 145, C-[D-(O-Benzyl)Tyrosyl-L-isoleucyl-D-pipecolyl-L-lysyl-D-(N-methyl)phenylalanyl-L-prolyl]] (cyclo(I[dPip]K[dNMeF]P[dY](Bn)))	–	–	10000	> 10000	inhibition at 1 µM (uterine OT receptors): 9%
CC[C@H](C)[C@@H]1NC(=O)[C@@H](Cc2ccc(O)cc2)NC(=O)[C@@H]2CCCN2C(=O)[C@@H](Cc2ccccc2)N(C)C(=O)[C@H](CCCCN)NC(=O)[C@H]2CCCCN2C1=O [Example 147, C-[D-Tyrosyl-L-isoleucyl-D-pipecolyl-L-lysyl-D-(N-methyl)phenylalanyl-L-prolyl]] (cyclo(I[dPip]K[dNMeF]P[dY]))	860	–	10000	10000	–
CC[C@H](C)[C@@H]1NC(=O)[C@@H](Cc2ccc(O)cc2)NC(=O)[C@@H]2CCCN2C(=O)[C@@H](Cc2ccccc2)N(C)C(=O)[C@H](CCCCNC(=O)OC(C)(C)C)NC(=O)[C@H]2CCCCN2C1=O [Example 148, C-[D-Tyrosyl-L-isoleucyl-D-pipecolyl-L-(N-t-butyloxycarbonyl)lysyl-D-(N-methyl)phenylalanyl)-L-prolyl] (cyclo(I[dPip]K(Boc)[dNMeF]P[dY]))	–	–	> 10000	> 10000	inhibition at 1 µM (uterine OT receptors): 50%
CC[C@H](C)[C@@H]1NC(=O)[C@@H](Cc2ccc(OC)cc2)NC(=O)[C@@H]2CCCN2C(=O)[C@@H](Cc2ccccc2)N(C)C(=O)[C@H](CCCCNC(=O)OC(C)(C)C)NC(=O)[C@H]2CCCCN2C1=O [Example 149, c-[D-(O-Methyl)Tyrosyl-L-isoleucyl-D-pipecolyl-L-(N-t-butyloxycarbonyl)lysyl-D-(N-methyl)phenylalanyl-L-prolyl]] (cyclo(I[dPip]K(Boc)[dNMeF]P[dY](Me)))	–	–	10000	> 10000	inhibition at 0.1 µM (uterine OT receptors): 53%
CC[C@H](C)[C@@H]1NC(=O)[C@@H](Cc2ccc(OC)cc2)NC(=O)[C@@H]2CCCN2C(=O)[C@@H](Cc2ccccc2)N(C)C(=O)[C@H](CCCCN)NC(=O)[C@H]2CCCCN2C1=O [Example 150, c-[D-(O-Methyl)Tyrosyl-L-isoleucyl-D-pipecolyl-L-lysyl-D-(N-methyl)phenylalanyl-L-prolyl]] (cyclo(I[dPip]K[dNMeF]P[dY](Me)))	44	–	–	10000	inhibition at 1 µM (AVP-V2 sites; @ 1,000 (nM)): 62%

From US5225528A, “Cyclic hexapeptide oxytocin antagonists” (priority 1990, dated 1993)
